From PubChem BioAssay (NCI)
Several values for one entry are separate records, joined by “and”; a condition that tells them apart may be missing. Identical values can stand only once.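 Cells were grown in 96-well plates and exposed to each compound for 48 hours at five concentrations; endpoints were interpolated linearly between bracketing concentrations, or set to the highest concentration if not reached. GI50 is the concentration that inhibits growth by half. The concentration for full growth arrest is given as TGI.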

test system: CCRF-CEM leukemia; test: NCI anticancer screen, dose series, 48 h

Compared with `CC[C@@]12CCCN3CC[C@]4(c5cccc(OC)c5N(C(C)=O)[C@@H]4CC1)[C@H]32`, `NC1CCC(Nc2nc(NCc3ccc(-c4ccco4)nc3)c3ncn(C4CCCC4)c3n2)CC1` (stereo not given) is 30-fold lower in TGI: 57.1 µM for the first, 1.88 µM for the second.

Going from `CC(=O)[O][Hg][c]1c(N)c(C)cc(C)c1F` to `O=C(CCl)N1c2ccccc2Oc2ccc3ccccc3c21`, the TGI falls from greater than 24.3 µM to 3.39 µM.

First: CSc1ccccc1C#C/C=C\C#Cc1ccccc1N1CCCC1=O
Second: O=C1C2=C(SCCS2)C(=O)c2ccccc21
The TGI of the first is higher: greater than 50 µM for the first, 4.2 µM for the second.

`Cc1ccc(-c2nnc(-c3ccc4ccccc4c3)o2)cc1` and `COc1ccc(-c2cc(-c3ccc(Nc4nc(Nc5ccccc5)nc(Nc5ccc(Cl)cc5)n4)cc3)nc(N)c2C#N)cc1` cannot be ordered by TGI: greater than 25 µM for the first, greater than 50 µM for the second.

Going from `CC(=O)[O][Hg][c]1c(N)c(C)cc(C)c1F` to `O=C(CCl)N1c2ccccc2Oc2ccc3ccccc3c21`, the GI50 falls from 0.401 µM to 0.163 µM (2.5-fold).

Going from `NC1CCC(Nc2nc(NCc3ccc(-c4ccco4)nc3)c3ncn(C4CCCC4)c3n2)CC1` (stereo not given) to `COc1ccc(-c2cc(-c3ccc(Nc4nc(Nc5ccccc5)nc(Nc5ccc(Cl)cc5)n4)cc3)nc(N)c2C#N)cc1`, the GI50 rises from 0.0362 µM to 1.7 µM (47-fold).

test system: IGROV1 ovarian; test: NCI anticancer screen, dose series, 48 h

Compared with `CCOc1ccccc1-n1c(CN2CCN(C(=O)COc3ccc(CNCCCCCCN4C5CCCC4CC(OC(=O)Nc4cc(C)ccc4OC)C5)cc3)CC2)nc2ccccc2c1=O` (stereo not given), `COc1ccc(-c2cc(-c3ccc(Nc4nc(Nc5ccccc5)nc(Nc5ccc(Cl)cc5)n4)cc3)nc(N)c2C#N)cc1` is 3.2-fold lower in GI50: 1.72 µM for the first, 0.546 µM for the second.

Compared with `CC1(C)COC(c2ccc(C(F)(F)F)cc2C(O)c2ccc3ccccc3c2)=N1` (stereo not given), `O=C(CCl)N1c2ccccc2Oc2ccc3ccccc3c21` is lower in GI50: greater than 100 µM for the first, 0.83 µM for the second.

Going from `CC(=O)[O][Hg][c]1c(N)c(C)cc(C)c1F` to `CSc1ccccc1C#C/C=C\C#Cc1ccccc1N1CCCC1=O`, the GI50 rises from 0.939 µM to 14.9 µM (16-fold).

For `NC1CCC(Nc2nc(NCc3ccc(-c4ccco4)nc3)c3ncn(C4CCCC4)c3n2)CC1` (stereo not given), the GI50 was 0.0351 µM.

Compared with `CCOc1ccccc1-n1c(CN2CCN(C(=O)COc3ccc(CNCCCCCCN4C5CCCC4CC(OC(=O)Nc4cc(C)ccc4OC)C5)cc3)CC2)nc2ccccc2c1=O` (stereo not given), `COc1ccc(-c2cc(-c3ccc(Nc4nc(Nc5ccccc5)nc(Nc5ccc(Cl)cc5)n4)cc3)nc(N)c2C#N)cc1` is 2.5-fold lower in TGI: 3.47 µM for the first, 1.41 µM for the second.

`COc1ccc2nc3cc(Cl)ccc3c(Sc3ccccc3[N+](=O)[O-])c2c1` and `Cc1ccc(-c2nnc(-c3ccc4ccccc4c3)o2)cc1` cannot be ordered by TGI: greater than 100 µM for the first, greater than 100 µM for the second.

Going from `O=C(O)C(Cc1ccccc1)N1C(=O)N/C(=C\c2ccc(F)cc2)C1=O` (stereo not given) to `O=C(CCl)N1c2ccccc2Oc2ccc3ccccc3c21`, the TGI falls from greater than 100 µM to 2.53 µM.

`CC1(C)COC(c2ccc(C(F)(F)F)cc2C(O)c2ccc3ccccc3c2)=N1` (stereo not given) and `COc1ccc(NC(=O)c2cc(OC)cc(OC)c2)cc1` cannot be ordered by TGI: greater than 100 µM for the first, greater than 100 µM for the second.

First: COc1ccc(/C=C\c2cc(OC)c3c(c2)OCO3)c(O)c1O
Second: CC[C@@]12CCCN3CC[C@]4(c5cccc(OC)c5N(C(C)=O)[C@@H]4CC1)[C@H]32
The TGI of the first is lower: 20.9 µM for the first, greater than 100 µM for the second.

First: CC(=O)[O][Hg][c]1c(N)c(C)cc(C)c1F
Second: CSc1ccccc1C#C/C=C\C#Cc1ccccc1N1CCCC1=O
The TGI of the first is lower: 2.79 µM for the first, greater than 50 µM for the second.

Going from `NC1CCC(Nc2nc(NCc3ccc(-c4ccco4)nc3)c3ncn(C4CCCC4)c3n2)CC1` (stereo not given) to `O=C1C2=C(SCCS2)C(=O)c2ccccc21`, the TGI falls from 10.7 µM to 3.17 µM (3.4-fold).

test system: SF-295 CNS; test: NCI anticancer screen, dose series, 48 h

Compared with `CCOc1ccccc1-n1c(CN2CCN(C(=O)COc3ccc(CNCCCCCCN4C5CCCC4CC(OC(=O)Nc4cc(C)ccc4OC)C5)cc3)CC2)nc2ccccc2c1=O` (stereo not given), `NC1CCC(Nc2nc(NCc3ccc(-c4ccco4)nc3)c3ncn(C4CCCC4)c3n2)CC1` (stereo not given) is 22-fold lower in GI50: 1.66 µM for the first, 0.0751 µM for the second.

Going from `CC1(C)COC(c2ccc(C(F)(F)F)cc2C(O)c2ccc3ccccc3c2)=N1` (stereo not given) to `O=C(CCl)N1c2ccccc2Oc2ccc3ccccc3c21`, the GI50 falls from greater than 10 µM to 2.41 µM.

Compared with `CC(=O)[O][Hg][c]1c(N)c(C)cc(C)c1F`, `CSc1ccccc1C#C/C=C\C#Cc1ccccc1N1CCCC1=O` is higher in GI50: 7.92 µM for the first, greater than 50 µM for the second.

First: CCOc1ccccc1-n1c(CN2CCN(C(=O)COc3ccc(CNCCCCCCN4C5CCCC4CC(OC(=O)Nc4cc(C)ccc4OC)C5)cc3)CC2)nc2ccccc2c1=O (stereo not given)
Second: O=C(CCl)N1c2ccccc2Oc2ccc3ccccc3c21
The TGI of the first is 1.8-fold lower: 3.27 µM for the first, 5.92 µM for the second.

`COc1ccc2nc3cc(Cl)ccc3c(Sc3ccccc3[N+](=O)[O-])c2c1` and `Cc1ccc(-c2nnc(-c3ccc4ccccc4c3)o2)cc1` cannot be ordered by TGI: greater than 100 µM for the first, greater than 100 µM for the second.

`O=C(O)C(Cc1ccccc1)N1C(=O)N/C(=C\c2ccc(F)cc2)C1=O` (stereo not given) and `CSc1ccccc1C#C/C=C\C#Cc1ccccc1N1CCCC1=O` cannot be ordered by TGI: greater than 100 µM for the first, greater than 50 µM for the second.

Compared with `COc1ccc(NC(=O)c2cc(OC)cc(OC)c2)cc1`, `COc1ccc(/C=C\c2cc(OC)c3c(c2)OCO3)c(O)c1O` is lower in TGI: greater than 64.5 µM for the first, 36.8 µM for the second.

Compared with `CC[C@@]12CCCN3CC[C@]4(c5cccc(OC)c5N(C(C)=O)[C@@H]4CC1)[C@H]32`, `CC(=O)[O][Hg][c]1c(N)c(C)cc(C)c1F` is lower in TGI: greater than 100 µM for the first, 21.8 µM for the second.

`CC1(C)COC(c2ccc(C(F)(F)F)cc2C(O)c2ccc3ccccc3c2)=N1` (stereo not given) was tested, and the TGI was > 10 µM and 42.5 µM.
